Where a SMILES comes first, the peptide text is derived from it.
Experiments:
[1] = target: T1, Group IIA purified human synovial sPLA2 (Homo sapiens, UniProt P14555); test: In vitro inhibition of purified human synovial sPLA2, 3H-labelled E. coli membranes; format: biochemical; settings: for inhibition at 5 µM / Mean % Inhibition: fixed peptide concentration 5 μM
T1 construct: purchased Cayman, USA
T1 sequence (P14555 21-144): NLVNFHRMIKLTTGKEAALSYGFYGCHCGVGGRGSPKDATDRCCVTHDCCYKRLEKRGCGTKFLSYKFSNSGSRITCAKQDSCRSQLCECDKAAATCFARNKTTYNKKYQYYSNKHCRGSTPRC

serum sPLA2 = test: Serum sPLA2 levels in Tg197 mice, E. coli membrane assay; format: in vivo, mouse; settings: 3–4 weeks post-treatment
Protocol: Serum of transgenic (Tg197) mice and non-transgenic wild type controls were measured for sPLA2 using an Escherichia coli (E. coli) membrane assay as described previously [Eur J Biochem 2002, 269:719–727]. In brief, [^3H] arachidonate-labeled E. coli membrane suspension (5.8 μCi/μmol, Perkin Elmer, USA) was used as substrate, and 25 mM CaCl2-100 mM Tris-HCl (pH 7.5) as assay buffer. The reaction mixture containing substrate (20 μl), and either purified human synovial sPLA2 standard (1–80 ng/ml, Cayman, USA) or serum (10 μl) in a final volume of 250 μl in assay buffer was incubated at 37° C. for 1 h, and the reaction terminated with 750 μl of chilled PBS containing 1% BSA. 500 μl aliquots of the supernatant were then taken to measure the amount of [^3H] arachidonate released from the E. coli membrane using liquid scintillation counting (Beckman LS 6500 Scintillation Counter). The amount of sPLA2 present in the serum was calculated from the standard curve, and is expressed as ng/ml±SEM.
FIG. 12 depicts time course of serum sPLA2 levels. Serum sPLA2 levels were measured with an E. coli membrane assay in blood samples collected from untreated, P-NT.I- and scrambled P-NT.II-treated Tg197 mice at weekly intervals. Values are the mean±SD (n=4/group). […]

[2] = tested on: mammalian (human and rat) type IIA sPLA2; format: binding
sPLA2 = test: Inhibition of sPLA2 activity at fixed concentrations; format: biochemical
[3] = target: snake venom PLA2 (crotoxin B) (Crotalus durissus terrificus, UniProt P0CAS2); test: biochemical; settings: IC50
Sequence of snake venom PLA2 (crotoxin B) (P0CAS2 whole entry, looked up): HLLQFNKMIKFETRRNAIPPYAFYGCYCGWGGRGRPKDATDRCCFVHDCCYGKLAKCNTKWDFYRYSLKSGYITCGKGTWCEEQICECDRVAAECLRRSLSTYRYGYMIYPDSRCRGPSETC

[4] = tested on: Tg197 transgenic mice (chronic inflammatory polyarthritis); test: Tg197 transgenic mouse arthritis model, experiment 2 (4 weeks, time course); format: in vivo
Protocol: In experiment 2, mice were divided into 6 groups (A–F), and were injected i.p with 3 weekly doses (150 μg peptide in 50 μL DMSO per dose) of either the test peptide P-NT.II or the control peptide with the scrambled sequence for 4 consecutive weeks. Tg197 mice in Group B (n=18) were further divided into 4 sub-groups (B1, B2, B3, B4). At the end of 1st week, four Tg197 mice from Group B (sub-group B1) were sacrificed and both hind legs taken for histological processing and scorings. The remaining Tg197 mice from the other sub-groups B were continued with 3 regular doses of injections per week, and four Tg197 mice from each sub-group B2 and B3, were sacrificed at the end of 2nd and 3rd weeks, respectively. At the end of 4th week, all remaining Tg197 mice ([…]) were sacrificed for collection of joint specimens.
Disease monitoring was done by gross observations based on body weight measurements and arthritis scoring, which were done twice weekly after treatment until all the animals were sacrificed at 5th week in experiment 1, or at 4th week in experiment 2. Arthritis score (AS) was recorded on both ankle joints, and average scores as shown below were taken: • 0=no arthritis (normal appearance and flexion); • 0.5=onset of arthritis (mild joint swelling); • 1.0=mild arthritis (joint distortion); • 1.5=as above+finger deformation, less strength on flexion; • […]=moderate arthritis (severe swelling, joint deformation, no strength on flexion); • 2.5=as above+finger deformation in paws; • 3.0=heavy arthritis (ankylosis detected on flexion and severely impaired movement).
For histopathological scoring, both hind legs were dissected and fixed in 10% formaldehyde overnight, decalcified in citrate-buffered formic acid for 3 days at 4° C., and processed for light microscopy (LM). • Histopathological score (HS) was evaluated as follows: • 0=no detectable pathology, • 1=hyperplasia of the synovial membrane and presence of polymorphonuclear infiltrates • 2=pannus and fibrous tissue formation and focal subchondrial bone erosion • 3=articular cartilage destruction and bone erosion • 4=articular cartilage destruction and extensive bone erosion.
Transmission electron microscopy (TEM): Ankle joints dissected from the left hind leg of each mouse were split open longitudinally through the midline between the tibia and the talus, prefixed overnight with 2.5% glutaraldehyde in phosphate buffer, pH 7.4 (PB) and rinsed with PB. After fixing with 1% osmium tetroxide in PB for 2 h, they were dehydrated in a graded series of ethanol and processed into Araldite. Semi-thin sections (1.0μ) were cut and stained with methylene blue to observe the orientation and for histopathological scorings under the light microscope. Ultra-thin sections (80–90 nm) were then cut with an ultramicrotome (Riechert-Jung Ultracut E), mounted on copper grids, counterstained with uranyl acetate and lead citrate, and evaluated under electron microscope (CM120 Biotwin, FEI Company).
Anti-inflammatory activity of the candidate peptide P-NT.II was examined as a new treatment option for modulating rheumatoid arthritis (RA) in a transgenic animal model. To evaluate the potential effectiveness of the peptide as prophylaxis against RA, two separate experiments were performed in 4 week-old transgenic (Tg197) mice and non-transgenic wild-type (wt) mice. These transgenic mice (Tg197) express human tumor necrosis factor (TNFα), a cytokine which has been implicated in the pathogenesis of human RA.

[5] = target: T2, 100-kDa human recombinant cytosolic form of PLA2 (cPLA2) (Homo sapiens, UniProt P47712); test: PLA2 inhibition, E. coli membrane assay, cPLA2; format: biochemical
T2 sequence (P47712 1-749): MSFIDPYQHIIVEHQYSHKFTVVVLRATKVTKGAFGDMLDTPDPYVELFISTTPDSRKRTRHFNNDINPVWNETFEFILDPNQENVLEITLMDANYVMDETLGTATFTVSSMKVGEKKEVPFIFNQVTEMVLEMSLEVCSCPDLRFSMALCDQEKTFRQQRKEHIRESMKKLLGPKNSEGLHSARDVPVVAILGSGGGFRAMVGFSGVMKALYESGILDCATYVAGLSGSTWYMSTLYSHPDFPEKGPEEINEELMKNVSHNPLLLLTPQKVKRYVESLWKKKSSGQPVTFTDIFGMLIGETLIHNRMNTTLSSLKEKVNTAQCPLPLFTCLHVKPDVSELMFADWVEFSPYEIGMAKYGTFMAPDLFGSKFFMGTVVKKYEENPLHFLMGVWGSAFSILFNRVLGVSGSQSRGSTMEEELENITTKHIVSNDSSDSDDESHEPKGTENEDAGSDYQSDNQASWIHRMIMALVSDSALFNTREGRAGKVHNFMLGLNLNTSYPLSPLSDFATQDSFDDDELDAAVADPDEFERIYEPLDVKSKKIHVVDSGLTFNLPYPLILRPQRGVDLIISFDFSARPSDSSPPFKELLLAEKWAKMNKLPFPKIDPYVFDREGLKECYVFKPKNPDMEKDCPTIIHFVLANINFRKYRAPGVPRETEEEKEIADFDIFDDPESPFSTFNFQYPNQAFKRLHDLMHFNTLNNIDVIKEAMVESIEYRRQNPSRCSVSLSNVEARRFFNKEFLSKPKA

[6] = 3H-labelled E. coli membranes as substrate
[7] = purified human synovial sPLA2 (Cayman)

CC[C@H](C)[C@H](NC(=O)[C@H](CCC(=O)O)NC(=O)[C@@H](N)C(C)C)C(=O)N[C@@H](Cc1c[nH]cn1)C(=O)N[C@H](C(=O)N[C@@H](Cc1c[nH]c2ccccc12)C(=O)N[C@@H](CCC(=O)O)C(=O)NCC(=O)N[C@H](C(=O)O)C(C)C)C(C)C [D60, 65E-PIP (59–67)] (H-VEIHVWEGV-OH; N-terminus and C-terminus assumed)
IC50 [1, 6]: 4.2 µM

CC[C@H](C)[C@H](NC(=O)[C@H](CC(=O)O)NC(=O)[C@@H](N)C(C)C)C(=O)N[C@@H](Cc1cnc[nH]1)C(=O)N[C@H](C(=O)N[C@@H](Cc1c[nH]c2ccccc12)C(=O)N[C@@H](C)C(=O)NCC(=O)N[C@H](C(=O)O)C(C)C)C(C)C [D65A-PIP (59–67)] (H-VDIHVWAGV-OH)
IC50 [1, 6]: 5.45 µM

CC[C@H](C)[C@H](NC(=O)[C@H](CC(=O)O)NC(=O)[C@@H](N)C(C)C)C(=O)N[C@@H](Cc1cnc[nH]1)C(=O)N[C@H](C(=O)N[C@@H](Cc1c[nH]c2ccccc12)C(=O)N[C@@H](CCC(=O)O)C(=O)NCC(=O)N[C@H](C(=O)O)C(C)C)C(C)C [D65E-PIP (59–67)] (H-VDIHVWEGV-OH)
IC50 [1, 6]: 4.95 µM

CC[C@H](C)[C@H](NC(=O)[C@H](CC(=O)O)NC(=O)[C@@H](N)C(C)C)C(=O)N[C@@H](Cc1cnc[nH]1)C(=O)N[C@H](C(=O)N[C@@H](Cc1c[nH]c2ccccc12)C(=O)N[C@@H](CO)C(=O)NCC(=O)N[C@H](C(=O)O)C(C)C)C(C)C [D65S-PIP (59–67)] (H-VDIHVWSGV-OH)
IC50 [1, 6]: 5.25 µM

CC[C@H](C)[C@H](NC(=O)[C@H](CC(=O)O)NC(=O)[C@@H](NC(=O)[C@@H](N)CCCNC(=N)N)C(C)C)C(=O)N[C@@H](Cc1c[nH]cn1)C(=O)N[C@H](C(=O)N[C@@H](Cc1c[nH]c2ccccc12)C(=O)N[C@@H](CC(=O)O)C(=O)NCC(=O)N[C@H](C(=O)O)C(C)C)C(C)C [PIP (58–67)] (H-RVDIHVWDGV-OH; N-terminus and C-terminus assumed)
IC50 [1, 6]: 3.67 µM
inhibition at 5 µM [1]: 59.5%

CC[C@H](C)[C@H](NC(=O)[C@H](CC(=O)O)NC(=O)[C@@H](N)C(C)C)C(=O)N[C@@H](Cc1cnc[nH]1)C(=O)N[C@H](C(=O)N[C@@H](Cc1c[nH]c2ccccc12)C(=O)N[C@@H](CC(=O)O)C(=O)NCC(=O)N[C@H](C(=O)N[C@H](C(=O)N[C@@H](CC(=O)O)C(=O)N[C@H](C(=O)N[C@@H](Cc1cnc[nH]1)C(=O)N[C@H](C(=O)N[C@@H](Cc1c[nH]c2ccccc12)C(=O)N[C@@H](CC(=O)O)C(=O)NCC(=O)N[C@H](C(=O)O)C(C)C)C(C)C)[C@@H](C)CC)C(C)C)C(C)C)C(C)C [PIP (59–67) dimer, VDIHVWDGV VDIHVWDGV] (H-VDIHVWDGVVDIHVWDGV-OH)
IC50 [1, 7]: 1.19 µM

CC[C@H](C)[C@H](NC(=O)[C@H](CC(=O)O)NC(=O)[C@@H](N)C(C)C)C(=O)N[C@@H](Cc1c[nH]cn1)C(=O)N[C@H](C(=O)N[C@@H](Cc1c[nH]c2ccccc12)C(=O)N[C@@H](CC(=O)O)C(=O)NCC(=O)N[C@H](C(=O)O)C(C)C)C(C)C [PIP (59–67)] (H-VDIHVWDGV-OH; N-terminus and C-terminus assumed)
IC50 [1, 7]: 3.8 µM

CC[C@H](C)[C@H](NC(=O)[C@@H](N)CC(=O)O)C(=O)N[C@@H](Cc1c[nH]cn1)C(=O)N[C@H](C(=O)N[C@@H](Cc1c[nH]c2ccccc12)C(=O)N[C@@H](CC(=O)O)C(=O)NCC(=O)N[C@H](C(=O)O)C(C)C)C(C)C [PIP (60–67)] (H-DIHVWDGV-OH; N-terminus and C-terminus assumed)
IC50 [1, 6]: 5.75 µM
inhibition at 5 µM [1]: 45.9%

CC[C@H](C)[C@H](NC(=O)[C@H](CC(=O)O)NC(=O)[C@@H](NC(=O)[C@H](CCCNC(=N)N)NC(=O)[C@H](CCCNC(=N)N)NC(=O)[C@@H](N)Cc1ccc(O)cc1)C(C)C)C(=O)NCC(=O)N[C@@H](CC(C)C)C(=O)N[C@@H](CCCNC(=N)N)C(=O)N[C@H](C(=O)N[C@@H](Cc1c[nH]c2ccccc12)C(=O)N[C@@H](Cc1c[nH]cn1)C(=O)N[C@@H](CC(=O)O)C(=O)N[C@@H](CC(C)C)C(=O)NCC(=O)N[C@H](C(=O)NCC(=O)O)C(C)C)C(C)C [Scrambled P-NT.II, reference compound] (H-YRRVDIGLRVWHDLGVG-OH; N-terminus and C-terminus assumed)
circulating sPLA2 compared with untreated mice (serum sPLA2): not significantly different
competition with labeled P-NT.II for binding to type IIA sPLA2 [2]: failed to block
inhibition of sPLA2 (sPLA2): failed to inhibit
IC50 [3]: > 250 µM
ultrastructural features of the articular chondrocytes (TEM) ([4]; 1–4 weeks post-treatment): more or less similar to those described for untreated Tg197 mice
% of total at indicated HS scores, HS 2 ([4]; 4 wk treatment): 16.7%
% of total at indicated HS scores, HS 3 ([4]; 4 wk treatment): 83.3%
% of total at indicated HS scores, HS 4 ([4]; 4 wk treatment): 0%
Mean HS ± SEM ([4]; 4 wk treatment): 3.25 ± 0.17
inhibition of cPLA2 [5]: failed to inhibit

DIHVWDG [PIP (60–66)]
Mean % Inhibition [1]: n.s.

GRVDIHVWDGV [PIP (57–67)]
Mean % Inhibition [1]: 14.22%

HVWDG [PIP (62–66)]
Mean % Inhibition [1]: n.s.

IHVWDG [PIP (61–66)]
Mean % Inhibition [1]: n.s.

IHVWDGV [PIP (61–67)]
Mean % Inhibition [1]: n.s.

LGRVDIHVWDGV [PIP (56–67)]
Mean % Inhibition [1]: 34.21%
